From ChEMBL document CHEMBL5550214, “Expanding Structure-Activity Relationships of Human Urotensin II Peptide Analogues: A Proposed Key Role of the N-Terminal Region for Novel Urotensin II Receptor Modulators” (J Med Chem, 2024)
Active and inactive are the calls of the source. The calls are words filed in the database; no cut-off is given here. Where a SMILES comes first, the peptide text is derived from it. Bridges are numbered along the chain shown (N, C = ends). [ ]: non-standard residue; d: D form. Pen = CC(C)(S)[C@H](N)C(=O)O; hSer = N[C@@H](CCO)C(=O)O; Orn = NCCC[C@H](N)C(=O)O; Dab = NCC[C@H](N)C(=O)O

Columns and labels:
[1] = biological target: T1, Urotensin-2 receptor (Homo sapiens) (UniProt Q9UKP6); assay: Modulation of human UTR stably expressed in HEK293 cells assessed as increase in Ca2+ level at 0.1 to 100 nM by Fura 2-AM dye based calcium mobilization assay; format: functional, cell-based; details: dose 0.1-100 nM
T1 sequence (whole entry): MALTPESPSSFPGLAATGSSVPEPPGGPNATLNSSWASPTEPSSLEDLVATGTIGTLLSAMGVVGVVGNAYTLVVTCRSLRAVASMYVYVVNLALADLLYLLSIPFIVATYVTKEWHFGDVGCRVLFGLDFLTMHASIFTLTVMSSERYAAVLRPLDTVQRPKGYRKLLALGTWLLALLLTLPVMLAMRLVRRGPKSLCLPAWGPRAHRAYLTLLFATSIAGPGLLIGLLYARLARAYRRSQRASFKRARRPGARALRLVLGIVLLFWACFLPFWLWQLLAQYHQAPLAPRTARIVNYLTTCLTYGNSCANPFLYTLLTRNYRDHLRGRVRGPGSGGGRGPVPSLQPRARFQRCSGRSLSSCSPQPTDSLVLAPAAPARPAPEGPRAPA

[2] = tested on: Aortic ring; assay: Induction of contraction in Albino Wistar rat aortic ring at 1 to 30 nM; format: functional, tissue-based; details: Aorta, dose 1-30 nM
[3] = tested on: Aortic ring; assay: Induction of contraction in Albino Wistar rat aortic ring assessed as Emax of hU-II at 1 uM incubated for 30 mins in presence of hU-II (reference value: 224.8 +/- 11.71 dyne/mg); format: functional, Aorta; details: 0.5 h
[4] = tested on: Aortic ring; assay: Induction of contraction in Albino Wistar rat aortic ring assessed as Emax of hU-II at 0.1 uM incubated for 30 mins in presence of hU-II (reference value: 251.4 +/- 15.43 dyne/mg); format: functional, Aorta; details: 0.5 h
[5] = tested on: Aortic ring; assay: Induction of contraction in Albino Wistar rat aortic ring assessed as Emax of hU-II at 10 uM incubated for 30 mins in presence of hU-II (reference value: 214.5 +/- 10.51 dyne/mg); format: functional, Aorta; details: 0.5 h
[6] = tested on: Aortic ring; assay: Induction of contraction in Albino Wistar rat aortic ring assessed as Emax of U-II(4-11) at 0.1 uM incubated for 30 mins in presence of U-II(4-11) (reference value: 159.8 +/- 7.39 dyne/mg); format: functional, Aorta; details: 0.5 h
[7] = tested on: Aortic ring; assay: Induction of contraction in Albino Wistar rat aortic ring assessed as Emax of U-II(4-11) at 1 uM incubated for 30 mins in presence of U-II(4-11) (reference value: 159.8 +/- 7.3 dyne/mg); format: functional, Aorta; details: 0.5 h
[8] = tested on: Aortic ring; assay: Induction of contraction in Albino Wistar rat aortic ring assessed as Emax of U-II(4-11) at 10 uM incubated for 30 mins in presence of U-II(4-11) (reference value: 152.4 +/- 5.1 dyne/mg); format: functional, Aorta; details: 0.5 h
[9] = tested on: Aortic ring; assay: Induction of contraction in Albino Wistar rat aortic ring assessed as Emax of [Ala1]U-II at 10 uM incubated for 30 mins in presence of [Ala1]U-II (reference value: 308.1 +/- 21.4 dyne/mg); format: functional, Aorta; details: 0.5 h
[10] = tested on: Aortic ring; assay: Induction of contraction in Albino Wistar rat aortic ring assessed as Emax of [Ala1]U-II at 1 uM incubated for 30 mins in presence of [Ala1]U-II (reference value: 220.3 +/- 17.48 dyne/mg); format: functional, Aorta; details: 0.5 h
[11] = tested on: Aortic ring; assay: Induction of contraction in Albino Wistar rat aortic ring assessed as Emax of [Ala1]U-II at 0.1 uM incubated for 30 mins in presence of [Ala1]U-II (reference value: 323 +/- 30.45 dyne/mg); format: functional, Aorta; details: 0.5 h
[12] = biological target: T1, Urotensin-2 receptor (Homo sapiens); assay: Modulation of human UTR stably expressed in HEK293 cells assessed as increase in Ca2+ level at 0.1 nM by Fura 2-AM dye based calcium mobilization assay; format: functional, cell-based; details: filed as modulator
[13] = tested on: Aortic ring; assay: Induction of contraction in Albino Wistar rat aortic ring at 1 to 30 nM relative to control; format: functional, Aorta; details: dose 1-30 nM
[14] = tested on: Aortic ring; assay: Induction of contraction in Albino Wistar rat aortic ring assessed as Emax of hU-II at 0.1 uM incubated for 30 mins in presence of hU-II (reference value: 224.8 +/- 11.71 dyne/mg); format: functional, Aorta; details: 0.5 h
[15] = tested on: Aortic ring; assay: Induction of contraction in Albino Wistar rat aortic ring assessed as Emax of hU-II at 10 uM incubated for 30 mins in presence of hU-II (reference value: 238.4 +/- 9.53 dyne/mg); format: functional, Aorta; details: 0.5 h
[16] = tested on: Aortic ring; assay: Induction of contraction in Albino Wistar rat aortic ring assessed as Emax of hU-II at 1 uM incubated for 30 mins in presence of hU-II (reference value: 214.5 +/- 10.51 dyne/mg); format: functional, Aorta; details: 0.5 h
[17] = tested on: Aortic ring; assay: Induction of contraction in Albino Wistar rat aortic ring assessed as Emax of [Ala1]U-II at 0.1 uM incubated for 30 mins in presence of [Ala1]U-II (reference value: 308.1 +/- 21.4 dyne/mg); format: functional, Aorta; details: 0.5 h
[18] = tested on: Aortic ring; assay: Induction of contraction in Albino Wistar rat aortic ring assessed as Emax of [Ala1]U-II at 10 uM incubated for 30 mins in presence of [Ala1]U-II (reference value: 391.6 +/- 38.83 dyne/mg); format: functional, Aorta; details: 0.5 h
[19] = tested on: Aortic ring; assay: Induction of contraction in Albino Wistar rat aortic ring assessed as Emax of [Ala1]U-II at 1 uM incubated for 30 mins in presence of [Ala1]U-II (reference value: 153.3 +/- 10.75 dyne/mg); format: functional, Aorta; details: 0.5 h

Row | SMILES | Activity ([1]; filed as modulator) | Activity [2] | Emax [6] [dyn/mg] | Emax [7] [dyn/mg] | Emax [8] [dyn/mg] | Activity [1] | Emax [13] [dyn/mg] | further results
1 | CC(C)[C@H](NC(=O)[C@@H]1CSSC(C)(C)[C@H](NC(=O)[C@H](CC(=O)O)NC(=O)[C@@H]2CCCN2C(=O)[C@@H](NC(=O)[C@@H](N)CCC(N)=O)[C@@H](C)O)C(=O)N[C@@H](Cc2ccccc2)C(=O)N[C@H](Cc2c[nH]c3ccccc23)C(=O)N[C@@H](CCCN)C(=O)N[C@@H](Cc2ccc(O)cc2)C(=O)N1)C(=O)O | Active | inactive | 265.4 | 215.7 | 164.2 | – | – | Emax [3]: 336.6 dyn/mg; Emax [4]: 507.7 dyn/mg; Emax [5]: 245.7 dyn/mg; Emax [9]: 218.8 dyn/mg; Emax [10]: 295.9 dyn/mg; Emax [11]: 46.4 dyn/mg
2 | CC(C)[C@H](NC(=O)[C@@H]1CSSC[C@H](NC(=O)[C@H](CC(=O)O)NC(=O)[C@@H]2CCCN2C(=O)[C@@H](NC(=O)[C@@H](N)CCO)[C@@H](C)O)C(=O)N[C@@H](Cc2ccccc2)C(=O)N[C@@H](Cc2c[nH]c3ccccc23)C(=O)N[C@@H](CCCCN)C(=O)N[C@@H](Cc2ccc(O)cc2)C(=O)N1)C(=O)O (H-[hSer]TPDCFWKYCV-OH; disulfide 5-10) | – | – | – | – | – | inactive | 144.2 | Activity [12]: Active
3 | CC(C)[C@H](NC(=O)[C@@H]1CSSC(C)(C)[C@H](NC(=O)[C@H](CC(=O)O)NC(=O)[C@@H]2CCCN2C(=O)[C@@H](NC(=O)[C@@H](N)CCC(=O)O)[C@@H](C)O)C(=O)N[C@@H](Cc2ccccc2)C(=O)N[C@H](Cc2c[nH]c3ccccc23)C(=O)N[C@@H](CCCN)C(=O)N[C@@H](Cc2ccc(O)cc2)C(=O)N1)C(=O)O | Active | inactive | 223.4 | 166.6 | 231 | – | – | Emax [14]: 251.6 dyn/mg; Emax [15]: 327 dyn/mg; Emax [16]: 143.5 dyn/mg; Emax [17]: 216.19 dyn/mg; Emax [18]: 727.7 dyn/mg; Emax [19]: 146.8 dyn/mg
4 | CC(C)[C@H](NC(=O)[C@@H]1CSSC(C)(C)[C@H](NC(=O)[C@@H](N)CC(=O)O)C(=O)N[C@@H](Cc2ccccc2)C(=O)N[C@H](Cc2c[nH]c3ccccc23)C(=O)N[C@@H](CCCN)C(=O)N[C@@H](Cc2ccc(O)cc2)C(=O)N1)C(=O)O (H-D[Pen]F[dW][Orn]YCV-OH; disulfide 2-7) | – | inactive | – | – | – | inactive | – | –
5 | CC(C)[C@H](NC(=O)[C@@H]1CSSC[C@H](NC(=O)[C@H](CC(=O)O)NC(=O)[C@@H]2CCCN2C(=O)[C@@H](NC(=O)[C@@H](N)CCN)[C@@H](C)O)C(=O)N[C@@H](Cc2ccccc2)C(=O)N[C@@H](Cc2c[nH]c3ccccc23)C(=O)N[C@@H](CCCCN)C(=O)N[C@@H](Cc2ccc(O)cc2)C(=O)N1)C(=O)O (H-[Dab]TPDCFWKYCV-OH; disulfide 5-10) | – | – | – | – | – | – | 97.78 | –
